The source of these data is patent US20130331445A1 (Axelar AB, priority 2010, published 2013).

The nature of data set [1]: Solubility in 1% sodium dodecyl sulfate (SDS) by LC-UV. The class given is physicochemical. As to conditions: aqueous with cosolvent or surfactant or cyclodextrin, thermodynamic from solid, 1% SDS, 24 hours rotation. The procedure: The solubility was determined in different media by use of LC-UV chromatography. An excess amount of substance was weighed in vials and 0.5 ml of the medium was added. The substance was rotated in the specific medium at ambient temperature for 24 hours, followed by filtering the supernatant using a hydrophilic PVDF (Millipore Corp.) 0.22 μm filter. The samples were then diluted with a 1:1 mixture of mobile phase A and B (see below) and analyzed using an Xterra™ MS C18, 50×2.1 mm column with UV detection at 288 nm. The mobile phase consisted of acetonitrile, water and trifluoroacetic acid, 5:95:0.1(A) and 99:1:0.1(B).

The test system of data set [2] is progressive non-small cell lung cancer (NSCLC). The experiment in a line: Phase I/II clinical trial in patients with progressive non-small cell lung cancer. The class given is in vivo. Here is the method:
The patients were assessed with imaging at the start of the study and thereafter every two months.

Regarding `COc1cc(C2c3cc4c(cc3C(O)[C@H]3COC(=O)[C@@H]23)OCO4)cc(OC)c1OC` (stereo partly drawn) [picropodophyllin monohydrate], the solubility at 24 h is 210 µg/mL in data set [1] (ambient temperature) and 489 µM in data set [1] (corresponds to the mg/ml value). Further, in data set [2] (NSCLC patients, 390 or 520 mg twice-daily), the “patients with partial response according to RECIST criteria” value was “one”. Moreover, the “patients still alive at cut-off” value in data set [2] (of ten NSCLC patients, 390 or 520 mg twice-daily) is reported as “five”. For the same compound, in data set [2] (of the five NSCLC patients still alive, 390 or 520 mg twice-daily), the “patients with no detectable progression at cut-off” value is listed as “two”. The compound further registered a median survival time in data set [2] (ten NSCLC patients, 390 or 520 mg twice-daily monotherapy, at least two weeks, expected median survival less than 20 weeks) of 42 weeks.
